Reference: patent US20160158252A1, “PHARMACEUTICAL COMPOSITION AND USE OF DIETHYL (2-CYANOETHYL)PHOSPHONATE” (Olatec Therapeutics LLC, priority 2013, published 2016)
Where two headings read alike, the source gives them in different places.

Tests used:
[1] = tested on: arachidonic acid-induced ear swelling; test: Arachidonic acid-induced ear swelling in mice (intraperitoneal administration); assay type: in vivo; settings: measured at 90 minutes
Description: The protocols of this experiment were similar to Example 3, except the following differences. Test substance diethyl (2-cyanoethyl) phosphonate was dissolved in PBS to generate 1, 3 and 10 mg/mL testing solutions. Vehicle (PBS) at 10 mL/kg and diethyl (2-cyanoethyl) phosphonate at 10 mL/kg (10, 30, and 100 mg/kg) were administered intraperitoneally at 1 hour, and again 15 minutes before arachidonic acid (0.5 mg/ear) challenge. The positive control dexamethasone was administered orally 3 hours before arachidonic acid.
An ANOVA was done, and if p<0.05, a Dunnett's t test was employed to calculate significant difference between vehicle control and treated groups. Significance is set at P<0.05 level.
(§1) An ANOVA was done, and if p<0.05, a Dunnett's t test was employed to calculate significant difference between vehicle control and test compound treated groups. A pairwise Student's t test was used to calculate differences between the dexamethasone group and the control group. Significance is set at P<0.05 level.

[2] = tested on: arachidonic acid-induced ear swelling; test: Topical arachidonic acid-induced ear swelling model in mice (topical administration); assay type: in vivo, mice (male ICR); settings: 90 minutes after arachidonic acid
Description: The test compound, indomethacin (positive control), and vehicle (acetone:ethanol/1:1) were evaluated for anti-inflammatory activity in a topical arachidonic acid-induced ear swelling model in mice.
Male ICR mice weighing 22±2 g were used and randomly divided; the test compound and vehicle control had 10 mice, and indomethacin had 5 mice. Arachidonic Acid (0.5 mg in 20 μl of acetone:ethanol/1:1) was applied topically to the anterior and posterior surfaces of the right ear of each mice. Test substances (in vehicle) and vehicle, as listed in Table 3 were similarly applied 30 min before and 15 min after arachidonic acid application. The thickness of the right ear and the left ear was measured and the difference calculated as an indication of the inflammation in the right ear. Ear swelling was measured by a Dyer model micrometer gauge at 60 and 90 minutes after arachidonic acid application as an index of inflammation. Percent inhibition was calculated according to the formula: Ic−It/Ic×100, where Ic and It refers to increase of ear thickness (mm) in control and treated mice, respectively. An ANOVA was done, and if p<0.05, a Dunnett's t test was employed to calculate significant difference between vehicle control and test compound treated groups. A pairwise Student's t test was used to calculate differences between the indomethacin group and the control group. Significance is set at P<0.05 level.

[3] = tested on: tail flick reaction to heat (49° C. water bath); test: Tail flick test in mice (oral administration); assay type: in vivo
Description: Tail flick test is a test of the pain response in animals. Tail flick test is used in basic pain research and to measure the effectiveness of analgesics, by observing the tail flick reaction to heat in an animal. This test assesses the nociceptive response to a local pain stimulus, and the ability of a drug to inhibit this response.
Vehicle control (water) and test compound diethyl (2-cyanoethyl) phosphonate in water were administered by oral gavage to mice with a volume of 10 mL/kg, twice, at 60 and 15 minutes before the first tail flick measurement. The test compound was administered at a dosage of 10, 30, or 100 mg/kg in water. The positive control compound morphine was administered by subcutaneous injection at 8 mg/kg with a volume of 8 mL/kg, at 15 minutes before the first tail flick measurement. Each group had 10 mice.
The response of mice to heat stimulus was evaluated by measuring the time of tail-flick or tail-flick latency from 49° C. water bath. Briefly, the animal was placed in a restrainer with its tail hanging down. Approximately 2 inches of the tail was immersed in a beaker of water at 38±1° C. for about 30 seconds, and this was done twice to acclimate the animal to the procedure.
Subsequently, approximately 2 inches of the tail was immersed in a beaker of water at 49±1° C., at which point a timer was started.
Tail flick measurements were made 60, 80, 100, and 120 minutes post administration of the first dosage of test compound. An ANOVA was done, and if p<0.05, a Dunnett's t test was employed to calculate significant difference between vehicle control and test compound treated groups. A pairwise Student's t test was used to calculate differences between the morphine group and the control group. […] Analysis with p-values <0.05 is considered significant.

[4] = tested on: formalin-induced paw licking; settings: for Licks per min (Between 0-10 min) / Licks per min (Between 10-40 min): 375 mM topical BID; for Licks per min (Between 0-10 min): early phase, vehicle 4.4; for Licks per min (Between 10-40 min): late phase, vehicle 1.7
Description: The test compound diethyl (2-cyanoethyl) phosphonate (375 mM in vehicle, n=16) and vehicle control (acetone:ethanol 1:1, n=16) were administered topically by submerging the mouse left hind paw in the respective solution for about 30 seconds. The paw was then withdrawn and wiped with tissue to avoid excess dermal drying.
Positive control morphine was administered by subcutaneous injection at 4 mg/kg with a volume of 4 mL/kg to mice (n=16).
Morphine was subcutaneously administered once 15 minutes before formalin injection. The test compounds and vehicle control were topically administered twice (BID), at 90 and 15 minutes before formalin injection.
Following formalin injection, animals were placed in individual cages, and manually observed for 60 minutes. The licking events were recorded in five minute intervals continuously for a total of 40 minutes.
The number of licking events per minute was calculated between 0-10 minutes and 10-40 minutes for vehicle, positive control, and test compound. A two-sample t-test was done to compare the vehicle group with the test compound group. Significance is set at P<0.05 level. The same statistics were done comparing the vehicle group with the positive control group.

[5] = tested on: IL-6, TNFα, IFNγ, MIP-2 and RANTES; test: Pro-inflammatory cytokine release in rat challenged in vivo with lipopolysaccharide; settings: given orally to rat, LPS challenge in vivo
[6] = tested on: formalin-induced paw licking; test: Formalin test in mice (oral administration); assay type: in vivo, mice (male CD-1); settings: for Licks per min (Between 0-10 min): early phase, vehicle 3.3; for Licks per min (Between 10-40 min): late phase, vehicle 1.4
Description: Formalin test is a model of continuous pain resulting from formalin-induced tissue injury. Nociceptive and inflammatory pain was induced by injection of a dilute formalin solution into the paw, resulting in nocifensive behavior including paw flinching. The formalin model encompasses inflammatory, neurogenic, and central mechanism of pain. The early phase of pain (from 0 to about 10 minutes) is due to nociceptive mechanism and the late phase of pain (from 10-40 minutes) is due to a combination of inflammatory pain and nociceptive mechanism. Pain behavior is assessed using manual paw licking measurements. The endpoints of the study are the number of paw licking events. (Hunskaar et al., Pain, 30:103-114, 1987; Li et al., Molecular Pain, 6:11, 2010)
Male CD-1 mice, about 34 g, were used in the study. Mice had free access to food and water, were maintained on a 12 hour:12 hour light/dark schedule for the entire duration of the study, and housed in soft bedding five per cage.
Immediately prior to testing (at time 0), mice were restrained in a cloth and injected with 20 μL of a 5% formalin solution, subcutaneously into the dorsal surface of the left hind paw. Vehicle control (n=10, water) and test compound diethyl (2-cyanoethyl) phosphonate (n=9, in water) were administered by oral gavage with a volume of 10 mL/kg to mice. The amounts of test compound were 10, 30, or 100 mg/kg per dose.
Positive control morphine was administered by subcutaneous injection at 4 mg/kg with a volume of 4 mL/kg to mice (n=10). […] The purpose of morphine is not to serve as a comparison with the test compound.
Morphine was subcutaneously administered once 15 minutes before formalin injection. The test compounds and vehicle control were orally administered twice (BID), at 60 and 15 minutes before formalin injection at time zero.
Following formalin injection, animals were placed in individual cages, and manually observed for 60 minutes. The licking events were recorded in five minute intervals continuously for a total of 60 minutes.
as §1, with “The number of licking events per minute was calculated between 0-10 minutes and 10-40 minutes for vehicle, positive control, and test compound. An” for “An”, “morphine” for “dexamethasone”

[7] = 100 mg/kg oral BID, listed as test compound

SMILES: C[C@@H]1C[C@H]2[C@@H]3CCC4=CC(=O)C=C[C@]4(C)[C@@]3(F)[C@@H](O)C[C@]2(C)[C@@]1(O)C(=O)CO [Dexamethasone, dexamethasone, reference compound]
- % Inhibition of ear swelling ([1]; 0.3 mg/kg orally 3 hours before arachidonic acid): 29%

SMILES: CCOP(=O)(CCC#N)OCC [Diethyl (2-cyanoethyl) phosphonate, Diethyl (2-cyanoethyl)phosphonate]
- % Inhibition of ear swelling ([2]; 375 mM in acetone:ethanol (1:1), 20 μL (1.4 mg/ear) applied twice topically): 55%
- % Inhibition of ear swelling ([2]; 375 mM in acetone:ethanol (1:1), 20 μL (1.4 mg/ear) applied twice topically, listed as active compound): anti-inflammatory
- % Inhibition of ear swelling ([2]; 375 mM in acetone:ethanol (1:1), 20 μL (1.4 mg/ear) applied twice topically, listed as tested compound): 55%
- % Inhibition of ear swelling ([1]; 10 mg/kg intraperitoneally, twice): −8%
- % Inhibition of ear swelling ([1]; 30 mg/kg intraperitoneally, twice): 0%
- % Inhibition of ear swelling ([1]; 100 mg/kg intraperitoneally, twice): 34%
- % Inhibition of ear swelling ([1]; 100 mg/kg intraperitoneally, twice, listed as tested compound): 37%
- Tail flick latency vs vehicle-treated mice ([3]; 30 mg/kg oral, twice, 60, 80, 100, 120 minutes): statistically significant tail flick latency at 60 and 80 minutes
- Tail flick latency vs vehicle-treated mice ([3]; 100 mg/kg oral, twice, 60, 80, 100, 120 minutes): statistically significant tail flick latency at 60 and 100 minutes
- Licks per min (Between 0-10 min) [4]: 4.0 licks per min
- Licks per min (Between 0-10 min) ([4]; listed as test compound): no statistically significant difference
- Licks per min (Between 10-40 min) [4]: 1.1 licks per min
- Licks per min (Between 10-40 min) ([4]; listed as test compound): statistically significant (p<0.05) reduction
- Paw licking events after topical application alone without injection of formalin ([4]; 375 mM topical, no formalin): negligible number of paw licking events
- Pro-inflammatory cytokine release (IL-6, TNFα, IFNγ, MIP-2 and RANTES) [5]: effective in inhibiting pro-inflammatory cytokine release
- Licking events, difference from control ([6]; 10 mg/kg oral BID): did not show a statically significant difference from control
- Licking events, difference from control ([6]; 30 mg/kg oral BID): did not show a statically significant difference from control
- Efficacy after 40 minutes (licking events) ([6]; 100 mg/kg oral BID): did not last after 40 minutes
- Licks per min (Between 0-10 min) ([6]; 100 mg/kg oral BID): 3.1 licks per min
- Licks per min (Between 0-10 min) [6, 7]: no statistically significant difference
- Licks per min (Between 10-40 min) ([6]; 100 mg/kg oral BID): 0.59 licks per min
- Licks per min (Between 10-40 min) [6, 7]: statistically significant (p<0.05) reduction

SMILES: COc1ccc2c(c1)c(CC(=O)O)c(C)n2C(=O)c1ccc(Cl)cc1 [Indomethacin, indomethacin, reference compound]
- % Inhibition of ear swelling ([2]; 14 mM, 20 μL (0.1 mg/ear) applied twice topically): 58%

SMILES: CN1CC[C@]23c4c5ccc(O)c4O[C@H]2[C@@H](O)C=C[C@H]3[C@H]1C5 [Morphine, morphine, reference compound]
- Tail flick latency vs vehicle-treated mice ([3]; mouse, in vivo): statistically significant tail flick latency at all measured time points
- Efficacy after 40 minutes (licking events) ([6]; mouse, in vivo): did not last after 40 minutes
